In US20090018150A1, “5-Ht2b Receptor Antagonists” (ASTERAND UK LIMITED, priority 2003, published 2009):
Where a name gives a salt, the structure may show the parent alone.

Columns and labels:
[1] = biological target: T1, cloned human 5-HT2C receptor (Homo sapiens, UniProt P28335); assay: Human 5-HT2C receptor binding assay; conditions: [3H]mesulergine (1 nM) displacement, CHO-K1 cell membranes; read-out: 5-HT2C pKi (converted)
T1 construct: purchased Euroscreen; host or cells: CHO-K1
T1 sequence (P28335 33-458): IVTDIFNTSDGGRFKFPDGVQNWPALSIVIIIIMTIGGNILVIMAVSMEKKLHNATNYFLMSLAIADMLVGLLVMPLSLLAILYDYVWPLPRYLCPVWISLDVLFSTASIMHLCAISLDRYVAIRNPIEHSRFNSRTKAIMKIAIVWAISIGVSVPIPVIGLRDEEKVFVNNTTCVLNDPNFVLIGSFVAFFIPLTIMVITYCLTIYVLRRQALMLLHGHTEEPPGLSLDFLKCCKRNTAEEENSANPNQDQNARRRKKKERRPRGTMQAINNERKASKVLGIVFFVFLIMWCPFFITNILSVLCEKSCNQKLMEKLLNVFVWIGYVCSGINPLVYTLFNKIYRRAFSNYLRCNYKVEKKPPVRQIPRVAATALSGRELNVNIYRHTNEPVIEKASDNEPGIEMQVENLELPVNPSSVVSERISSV
Description: (§1) The binding affinity of ligands for human 5-HT2A and 5-HT2C receptors was determined using the following assay.
Membrane preparations from CHO-K1 cells expressing the cloned human 5-HT2C receptor were obtained (Euroscreen). The membranes were thawed rapidly and diluted in assay buffer containing Tris-HCl (50 mM, pH 7.7), ascorbic acid (0.1%) and pargyline (10 μM). The membranes were resuspended by homogenisation, prior to adding 6 μg of membranes to assay wells containing [^3H]mesulergine (1 nM), assay buffer (50 mM Tris at pH 7.7 and 0.1% ascorbic acid) containing pargyline (10 μM), and test compounds (1×10^−10 to 1×10^−4M). Non specific binding was determined in the presence of 100 μM mianserin. After 30 minutes incubation at 37° C., the assay mixture was filtered through a combination of GF-C and GF-B filters, pre-soaked in 1% bovine serum albumin, using a Brandel cell harvester, and were washed three times using ice cold Tris-HCl buffer (50 mM). Radioactivity retained on the filters was determined by liquid scintillation counting. For each test compound, the concentration that inhibited binding of [^3H]mesulergine by 50% was determined using curve fitting software (Prism). Kd values (concentration of mesulergine required to occupy 50% of the receptor binding sites at equilibrium) determined from saturation binding studies were then used to calculate inhibition dissociation constants (Ki) using the following equation: […]

[2] = biological target: T2, human cloned 5-HT2B receptors (Homo sapiens, UniProt P41595); assay: Human cloned 5-HT2B receptor binding assay; conditions: [3H]LSD (1 nM) displacement, membranes of CHO-K1 cells expressing cloned 5-HT2B receptor; read-out: 5-HT2B pKi (converted)
T2 construct: expressed in transfected cells; host or cells: CHO-K1
Description: The binding affinity of the compounds for human cloned 5-HT2B receptors was determined using the following assay.
CHO-K1 cells expressing cloned 5-HT2B receptor were maintained in Ultra-CHO medium containing 400 μg/ml of G418, 100 U/ml penicillin, 100 μg/ml streptomycin, 2.5 μg/ml fungizone and 1-foetal bovine serum, in 95/5% O2/CO2 at 37° C. The cells were harvested using 0.25% trypsin and were centrifuged at 800 rpm for 8 minutes. The cells were homogenised in 50 mM HEPES buffer containing 1 mM disodium EDTA and 1 mM PMSF at pH 7.4, using a Dounce homogeniser (20 strokes). The homogenate was centrifuged at 2280 rpm (1000 g) and 4° C. for 10 minutes, after which the supernatant was removed by decanting. The pellet was re-homogenised as above, and the resulting supernatant removed and combined with that already obtained. The supernatant solution was then centrifuged at 18300 rpm (40000 g) for 10 minutes at 4° C. using a Sorvall centrifuge. The supernatant was removed, and the pellet was re-suspended in 50 mM buffer at pH 7.4 using a Ultra-turrax T25 Polytron, before centrifugation again at 40000 g as above. This wash procedure was repeated, after which the membrane preparation was stored at a concentration of 1 mg/ml at −80° C. until use.
The membranes were thawed rapidly and diluted in assay buffer containing Tris-HCl (50 mM, pH 7.4), ascorbic acid (0.1°) and calcium chloride (4 mM). The membranes were homogenised to resuspend them, prior to adding 10 or 15 μg of membranes to assay wells containing [^3H]LSD (1 nM), assay buffer (50 mM Tris, 4 mM calcium chloride and 0.1° ascorbic acid) containing pargyline (10 μM), and the test compounds (1×10^−10 to 1×10^−4M). Non specific binding was determined in the presence of 100 μM 5-HT. After 30 minutes incubation at 37° C., the assay mixture was filtered through a combination of GF-C and GF-B filters, pre-soaked in 1% polyethyleneimine, using a Brandel cell harvester, and were washed three times using 50 mM Tris-HCl. Radioactivity retained on the filters was determined by liquid scintillation counting. For each test compound, the concentration that inhibited binding of [^3H]LSD by 50% was determined using curve fitting software (Prism). Kd values (concentration of LSD required to occupy 50% of the receptor binding sites at equilibrium) determined from saturation binding studies were then used to calculate inhibition dissociation constants (Ki) using the following equation: […]
This approach follows that set out in Kenakin, T. P. Pharmacologic analysis of drug-receptor interaction. Raven Press, New York, 2nd Edition.

[3] = biological target: T3, cloned human 5-HT2A receptor (Homo sapiens, UniProt P28223); assay: Human 5-HT2A receptor binding assay; conditions: [3H]ketanserin (1 nM) displacement, CHO-K1 cell membranes; read-out: 5-HT2A pKi (converted)
T3 construct: purchased Euroscreen; host or cells: CHO-K1
Description: as §1
Membrane preparations from CHO-K1 cells expressing the cloned human 5-HT2A receptor were obtained (Euroscreen). The membranes were thawed rapidly and diluted in assay buffer containing Tris-HCl (50 mM, pH 7.7). The membranes were resuspended by homogenisation, prior to adding 15 μg of membranes to assay wells containing [3H]ketanserin (1 nM), assay buffer (50 mM Tris at pH 7.4) containing pargyline (10 μM), and test compounds (1×10^−10 to 1×10^−4M). Non specific binding was determined in the presence of 100 μM mianserin. After 15 minutes incubation at 37° C., the assay mixture was filtered through a combination of GF-C and GF-B filters, pre-soaked in 0.05% Brij, using a Brandel cell harvester, and were washed three times using ice cold Tris-HCl buffer (50 mM). Radioactivity retained on the filters was determined by liquid scintillation counting. For each test compound, the concentration that inhibited binding of [^3H]ketanserin by 50% was determined using curve fitting software (Prism). Kd values (concentration of ketanserin required to occupy 50% of the receptor binding sites at equilibrium) determined from saturation binding studies were then used to calculate inhibition dissociation constants (Ki) using the following equation: […]

T3 sequence (P28223 whole entry): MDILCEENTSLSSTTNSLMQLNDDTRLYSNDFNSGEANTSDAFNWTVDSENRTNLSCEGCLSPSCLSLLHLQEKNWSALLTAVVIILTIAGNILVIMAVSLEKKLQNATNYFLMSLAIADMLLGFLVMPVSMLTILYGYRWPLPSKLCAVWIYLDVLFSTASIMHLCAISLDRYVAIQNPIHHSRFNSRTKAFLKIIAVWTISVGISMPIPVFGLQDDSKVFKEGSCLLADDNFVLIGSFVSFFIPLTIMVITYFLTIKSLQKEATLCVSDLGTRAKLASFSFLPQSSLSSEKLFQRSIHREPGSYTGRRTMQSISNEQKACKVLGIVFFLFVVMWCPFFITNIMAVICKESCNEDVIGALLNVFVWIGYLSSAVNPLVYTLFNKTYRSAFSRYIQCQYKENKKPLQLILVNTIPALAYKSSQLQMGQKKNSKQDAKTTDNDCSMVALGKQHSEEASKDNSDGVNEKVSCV
T2 sequence (P41595 whole entry): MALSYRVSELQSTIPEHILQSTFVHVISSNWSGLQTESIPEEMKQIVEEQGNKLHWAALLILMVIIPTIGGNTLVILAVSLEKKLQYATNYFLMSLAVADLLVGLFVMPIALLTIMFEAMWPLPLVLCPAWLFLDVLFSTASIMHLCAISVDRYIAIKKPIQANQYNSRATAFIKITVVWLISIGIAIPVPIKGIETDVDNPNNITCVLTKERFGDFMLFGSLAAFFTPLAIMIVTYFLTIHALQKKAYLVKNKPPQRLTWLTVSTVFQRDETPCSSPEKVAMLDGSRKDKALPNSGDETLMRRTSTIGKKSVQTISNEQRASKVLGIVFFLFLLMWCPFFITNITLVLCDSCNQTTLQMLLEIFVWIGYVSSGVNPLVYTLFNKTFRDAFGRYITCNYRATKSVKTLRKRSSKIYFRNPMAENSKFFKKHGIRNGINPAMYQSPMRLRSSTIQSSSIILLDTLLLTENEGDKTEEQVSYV

SMILES	Ki [1] [nM]	Ki [2] [nM]	Ki [3] [nM]
Cc1ccc(Nc2cc(C)nc(N)n2)cc1 [Compound 2U, 6-methyl-N^4-p-tolyl-pyrimidine-2,4-diamine hydrochloride]	> 1000	< 1000	> 1000
Cc1cc(Nc2cccc(F)c2)nc(N)n1 [Compound 2AN, N^4-(3-fluoro-phenyl)-6-methyl-pyrimidine-2,4-diamine]	> 1000	< 1000	> 10000
Cc1cc(Nc2cccc(C(F)(F)F)c2)nc(N)n1 [Compound 2H, 6-Methyl-N^4-(3-trifluoromethyl-phenyl)-pyrimidine-2,4-diamine, hydrochloride]	> 1000	< 1000	> 10000
Cc1cc(Nc2ccc(C)c(Br)c2)nc(N)n1 [Compound 2S, N^4-(3-bromo-4-methyl-phenyl)-6-methyl-pyrimidine-2,4-diamine hydrochloride]	> 316	< 100	> 1000
Cc1[nH]c(N)nc1-c1cccc2ccccc12 [Compound 104I, 5-Methyl-4-naphthalen-1-yl-1H-imidazol-2-ylamine]	> 1000	< 100	> 3160
Cc1cc(Nc2cc(Br)ccc2C)nc(N)n1 [Compound 2AP, N^4-(5-bromo-2-methyl-phenyl)-6-methyl-pyrimidine-2,4-diamine]	> 1000	< 1000	> 1000
COc1ccccc1-c1cccc(Nc2cc(C)nc(N)n2)c1 [Compound 10F, N^4-(2′-methoxy-biphenyl-3-yl)-6-methyl-pyrimidine-2,4-diamine trifluoroacetic acid]	> 100	< 100	> 316
Nc1nc(-c2cccc(-c3ccccc3)c2)c[nH]1 [Compound 108, 4-biphenyl-3-yl-1H-imidazol-2-ylamine]	> 100	< 100	> 316
Nc1nccc(Nc2ccc(I)cc2)n1 [Compound 16, N″-(4-Iodo-phenyl)-pyrimidine-2,4-diamine]	> 1000	< 1000	> 1000
Cc1cccc(-c2cc(Nc3cc(C)nc(N)n3)ccc2C)c1 [Compound 12, N^4-(6,3′-dimethyl-biphenyl-3-yl)-6-methyl-pyrimidine-2,4-diamine]	> 1000	< 100	> 1000
COc1ccccc1-c1cccc(Nc2nc(N)nn2C)c1 [Compound 406B, N^5-(2′-methoxy-biphenyl-3-yl)-1-methyl-1H-[1,2,4]triazole-3,5-diamine]	> 1000	< 316	> 1000
Cc1cc(Nc2ccc(N3CCOCC3)cc2)nc(N)n1 [Compound 2K, 6-methyl-N^4-(4-morpholin-4-yl-phenyl)-pyrimidine-2,4-diamine hydrochloride]	> 10000	< 1000	> 10000
Cc1cc(Nc2cccc(-c3ccccc3)c2)nc(N)n1 [Compound 10A, N^4-biphenyl-3-yl-6-methyl-pyrimidine-2,4-diamine trifluoroacetic acid]	> 316	< 100	> 100
Nc1nc(-c2cccc3ccc(Br)cc23)c[nH]1 [Compound 104G, 4-(7-Bromo-naphthalen-1-yl)-1H-imidazol-2-ylamine]	> 316	< 100	> 316
Cc1cc(Nc2cccc(-c3ccc(N(C)C)cc3)c2)nc(N)n1 [Compound 10H, N^4-(4′-dimethylamino-biphenyl-3-yl)-6-methyl-pyrimidine-2,4-diamine bis trifluoroacetic acid]	> 316	< 100	> 316
Cc1cc(Nc2ccccc2)nc(N)n1 [Compound 2A, N^4-phenyl-6-methyl-pyrimidine-2,4-diamine hydrochloric acid]	> 1000	< 1000	> 10000
Cc1cc(Nc2cccc(Br)c2C)nc(N)n1 [Compound 2T, N^4-(3-bromo-2-methyl-phenyl)-6-methyl-pyrimidine-2,4-diamine hydrochloride]	> 1000	< 1000	> 1000
Cc1cc(Nc2ccc(Br)cc2)nc(N)n1 [Compound 2F, N^4-(4-bromo-phenyl)-6-methyl-pyrimidine-2,4-diamine hydrochloride]	> 10000	< 1000	> 10000
Nc1nc(-c2ccc(F)c3ccccc23)c[nH]1 [Compound 104F, 4-(4-Fluoro-naphthalen-1-yl)-1H-imidazol-2-ylamine]	> 1000	< 100	> 1000
CC(=O)Nc1nc(-c2cccc3c(Br)cccc23)c[nH]1 [Compound 103H, N-[4-(5-Bromo-naphthalen-1-yl)-1H-imidazol-2-yl]-acetamide]	> 1000	< 100	> 1000

Second part, the molecule after the results:

Ki [1] [nM]	Ki [2] [nM]	Ki [3] [nM]	SMILES
> 1000	< 1000	> 1000	Cc1cccc(-c2ccc(Nc3nc(N)nn3C)cc2)c1 [Compound 410C, 1-methyl-N^5-(3′-methyl-biphenyl-4-yl)-1H-[1,2,4]triazole-3,5-diamine trifluoroacetic acid]
> 1000	< 316	> 1000	COc1ccccc1-c1ccc(OC)c(-c2cnc(N)o2)c1 [Compound 224B, 5-(4,2′-dimethoxy-biphenyl-3-yl)-oxazol-2-ylamine, trifluoroacetic acid]
> 10000	< 316	> 10000	Cc1cccc(-c2cccc(-c3cnc(N)o3)c2)c1 [Compound 209B, 5-(3′-Methyl-biphenyl-3-yl)-oxazol-2-ylamine]
